{
  "source": "paper PMC6479253",
  "about": "(Assay and Drug Development Technologies, 2019)",
  "key": {"Kir2.1 [1]": {"test_system": "Kir2.1", "conditions": "Xenopus oocytes, at −120 mV; ref Schram et al. 23; cited from earlier work"}, "human Kir2.1 channels": {"target": "T1, human Kir2.1 channels (Homo sapiens, UniProt P63252)", "T1 sequence (P63252 1-427)": "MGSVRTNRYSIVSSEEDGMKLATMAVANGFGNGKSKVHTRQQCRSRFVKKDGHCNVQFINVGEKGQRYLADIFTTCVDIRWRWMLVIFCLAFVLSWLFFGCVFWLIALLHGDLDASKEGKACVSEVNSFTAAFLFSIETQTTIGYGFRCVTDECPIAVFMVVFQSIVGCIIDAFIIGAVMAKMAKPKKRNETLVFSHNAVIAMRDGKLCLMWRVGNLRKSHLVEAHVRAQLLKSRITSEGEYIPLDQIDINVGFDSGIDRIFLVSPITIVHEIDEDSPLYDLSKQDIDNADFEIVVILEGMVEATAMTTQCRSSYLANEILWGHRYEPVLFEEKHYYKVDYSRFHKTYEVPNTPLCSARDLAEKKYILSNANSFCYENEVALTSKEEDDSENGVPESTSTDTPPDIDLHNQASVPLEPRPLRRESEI", "assay": "cell-based", "type": "cell-based"}, "Kir2.1 [2]": {"test_system": "Kir2.1", "conditions": "HEK cells, at −90 mV; ref Shen et al. 43; cited from earlier work"}, "IK1 currents": {"test_system": "IK1 currents", "conditions": "3 μM chloroquine, at −100 mV; cited from earlier work"}, "Kir2.1 [3]": {"test_system": "Kir2.1", "conditions": "at −100 mV, manual patch-clamp; cited from earlier work"}},
  "note": "Like-named read-outs stand apart in the source and are kept apart here.",
  "data": [
    {"smiles": "[Ba+2].[Cl-].[Cl-]", "note": "[Ba^2+]", "values": [
      {"measurement": "IC50", "setting": "Kir2.1 [1]", "result": 16, "unit": "µM"},
      {"measurement": "Hill coefficient (nH)", "setting": "human Kir2.1 channels", "result": 1.03},
      {"measurement": "IC50", "setting": "Kir2.1 [2]", "result": 7.9, "unit": "µM"}
    ]},
    {"smiles": "CCN(CC)CCCC(C)Nc1ccnc2cc(Cl)ccc12", "note": "(stereo not drawn) [Chloroquine, 4-N-(7-chloroquinolin-4-yl)-1-N,1-N-diethylpentane-1,4-diamine]", "values": [
      {"measurement": "decrease of IK1 currents", "setting": "IK1 currents", "result": 67, "unit": "%"},
      {"measurement": "Hill slope nH (95% CI)", "setting": "human Kir2.1 channels", "result": "0.80 (0.76–0.83)"},
      {"measurement": "IC50", "setting": "human Kir2.1 channels", "result": 1.9, "unit": "µM"}
    ]},
    {"smiles": "CN(C)CCCN1c2ccccc2Sc2ccc(Cl)cc21", "note": "[Chlorpromazine, 3-(2-chlorophenothiazin-10-yl)-N,N-dimethylpropan-1-amine]", "values": [
      {"measurement": "Hill slope nH (95% CI)", "setting": "human Kir2.1 channels", "result": "1.7 (1.4–2.1)"},
      {"measurement": "IC50", "setting": "human Kir2.1 channels", "result": 3.8, "unit": "µM"}
    ]},
    {"smiles": "COc1ccc(CNCc2cccc3ccccc23)cc1", "note": "[ML133, N-(4-methoxybenzyl)-1-(naphthalene-1-yl) methanamine]", "values": [
      {"measurement": "Hill slope nH (95% CI)", "setting": "human Kir2.1 channels", "result": "2.6 (2.2–3.1)"},
      {"measurement": "IC50", "setting": "human Kir2.1 channels", "result": 1.2, "unit": "µM"},
      {"measurement": "IC50", "setting": "Kir2.1 [3]", "result": 1.8, "unit": "µM"}
    ]},
    {"smiles": "COc1ccc(CCCOC(Cn2ccnc2)c2ccc(OC)cc2)cc1", "note": "(stereo not drawn) [SKF-96365, 1-[2-(4-methoxyphenyl)-2-[3-(4-methoxyphenyl)propoxy]ethyl]imidazole]", "values": [
      {"measurement": "Hill slope nH (95% CI)", "setting": "human Kir2.1 channels", "result": "1.3 (1.1–1.5)"},
      {"measurement": "IC50", "setting": "human Kir2.1 channels", "result": 4.7, "unit": "µM"}
    ]},
    {"smiles": "COc1ccc(C2CCN(CC[C@H]3CCOc4ccccc43)CC2)cc1OC", "note": "[Terikalant, 1-[2-[(4S)-3,4-dihydro-2H-chromen-4-yl]ethyl]-4-(3,4-dimethoxyphenyl)piperidine]", "values": [
      {"measurement": "Hill slope nH (95% CI)", "setting": "human Kir2.1 channels", "result": "0.98 (0.88–1.1)"},
      {"measurement": "IC50", "setting": "human Kir2.1 channels", "result": 8.4, "unit": "µM"}
    ]}
  ]
}
